We go through two compounds from article PMC7696167 (Pharmaceutics, 2020).

Each structure is given as a SMILES string.

Series [1] concerns CYP3A4. Also on record: method as in PMID 18048486. The conditions noted are these: cited from earlier work.
The subject of series [2] is P-glycoprotein 1 (P-gp, MDR1 or ABCB1) efflux pump. Also on record: method as in PMID 20699410. The settings on record: cited from earlier work.
A short description of series [3]: Population pharmacokinetic model of oral roscovitine and metabolite M3, first dose, ROSCO-CF trial.
The test system of series [4] is CYP2B6. Also on record: method as in PMID 18048486. The settings on record: cited from earlier work.
[5] abbreviates: population estimate, adult CF patients, oral.
Where [6] appears, read: population estimate, covariate effect.

In the case of `CC[C@H](CO)Nc1nc(NCc2ccccc2)c2ncn(C(C)C)c2n1` [roscovitine, (R)-roscovitine], the “substrate for CYP3A4” value in series [1] is “substrate”. The “substrate for P-glycoprotein 1 efflux pump” value in series [2] is on record as “substrate”. Also, in series [3] (oral roscovitine, adult CF patients), the “rate of absorption in patients treated with PPIs” value is “slower rate of absorption”. Besides, in series [3] (population estimate), the “CV1: coefficient of variation of first inverse Gaussian absorption function” value is 0.542, the “CV2: coefficient of variation of second inverse Gaussian absorption function” value is reported as 0.354, the “k12: distribution rate to the peripheral compartment” value is 1.82 h⁻¹ and the “k21: distribution rate from the peripheral compartment” value was 0.768 h⁻¹. Besides, the “kmet: systemic conversion rate of roscovitine in its carboxylate metabolite M3” value in series [3] (population estimate) is 2.07 h⁻¹. For the same compound, in series [3] (setting [5]), the “T1max: time at which the first inverse Gaussian absorption function reaches its maximum” value was 0.676 h; the “dT2max (T2max = T1max + dT2max), inverse Gaussian absorption parameter” value is 1.04 h; the “π1: weight associated with the first input fraction” value is given as 0.285. Besides, in series [3] (population estimate, adult CF patients, oral 200-800 mg), the “D50: oral dose of roscovitine for which Fdose is 50%” value is 1190 µmol. Besides, in series [3] (setting [6]), the “β (PPI = 1) on T1max: coefficient for modification of T1max in patients taking PPI” value is recorded as 0.680 and the “β height (cm) on V: coefficient for the effect of height on V/F” value is on record as 6.47. Further, in series [3] (population estimate, single parameter common to roscovitine and M3, reference height 170 cm), the “V/F: apparent volume of the central compartment after oral administration” value was 62.2 L. Besides, in series [4], the “substrate for CYP2B6” value is “substrate”.

Consider `CC[C@@H](Nc1nc(NCc2ccccc2)c2ncn(C(C)C)c2n1)C(=O)O` [M3], for which the “ke: elimination rate of the metabolite” value in series [3] (population estimate) was 2.58 h⁻¹.
